# Columns and labels:
# PTGER4 (EP4) = PTGER4 (EP4) (Homo sapiens (Human), UniProt P35408); test: cell-based
# PTGER2 (EP2) = PTGER2 (EP2) (Homo sapiens (Human), UniProt P43116); test: hEP2 b-arrestin assay (PathHunter HEK 293 PTGER2 b-arrestin cells); format: cell-based; settings: antagonistic activity, beta-arrestin assay; read-out: hEP2 b-arr IC50
# Protocol: Plate is pre-incubated 15 minutes at 37° C. Then five microliters of PGE2 (final conc. 5 μM) are transferred into the assay plate. Plate is incubated 120 minutes at 37° C.
# (each concentration is measured in duplicate)
# Sequence of PTGER4 (EP4) (P35408 whole entry): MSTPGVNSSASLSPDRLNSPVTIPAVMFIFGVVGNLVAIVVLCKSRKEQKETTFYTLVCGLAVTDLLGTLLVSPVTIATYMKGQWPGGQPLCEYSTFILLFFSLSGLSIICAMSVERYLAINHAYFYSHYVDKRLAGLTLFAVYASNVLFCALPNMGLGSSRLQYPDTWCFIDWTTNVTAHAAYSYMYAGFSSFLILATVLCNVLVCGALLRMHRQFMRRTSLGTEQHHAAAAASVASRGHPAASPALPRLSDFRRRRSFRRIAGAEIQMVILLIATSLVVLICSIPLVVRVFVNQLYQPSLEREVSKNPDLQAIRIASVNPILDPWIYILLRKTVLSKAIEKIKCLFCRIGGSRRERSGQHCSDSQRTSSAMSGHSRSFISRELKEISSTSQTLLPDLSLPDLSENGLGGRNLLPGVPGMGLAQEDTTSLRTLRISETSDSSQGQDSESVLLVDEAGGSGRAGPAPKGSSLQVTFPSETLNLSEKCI
# Sequence of PTGER2 (EP2) (P43116 whole entry): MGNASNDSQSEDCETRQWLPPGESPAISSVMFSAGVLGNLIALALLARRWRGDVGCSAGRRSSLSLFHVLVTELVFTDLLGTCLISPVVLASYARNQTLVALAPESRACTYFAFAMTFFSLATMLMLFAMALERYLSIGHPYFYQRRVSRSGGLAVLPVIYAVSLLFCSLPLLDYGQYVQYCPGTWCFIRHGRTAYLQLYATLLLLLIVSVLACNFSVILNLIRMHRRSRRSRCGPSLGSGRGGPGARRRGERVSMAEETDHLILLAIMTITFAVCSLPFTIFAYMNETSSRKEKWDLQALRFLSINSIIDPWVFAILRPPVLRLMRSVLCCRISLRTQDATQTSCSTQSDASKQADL
SMILES,IC50 (PTGER4 (EP4)) [nM],IC50 (PTGER2 (EP2)) [nM]
"COC(=O)c1sc(-c2cc(NCCc3ccc4ccccc4c3C)ncn2)cc1O [Example 468, 3-Hydroxy-5-{6-[2-(1-methyl-naphthalen-2-yl)-ethylamino]-pyrimidin-4-yl}-thiophene-2-carboxylic acid methyl ester]",571,564
"CCOc1cc(-c2cc(NCCc3cc4ccsc4cc3C)ncn2)cc(F)c1CC(=O)O [Example 469, (2-Ethoxy-6-fluoro-4-{6-[2-(6-methyl-benzo[b]thiophen-5-yl)-ethylamino]-pyrimidin-4-yl}-phenyl)-acetic acid]",480,502
"CCOc1cc(-c2cc(NCCc3ccc4ccsc4c3C)ncn2)ccc1C(=O)O [Example 470, 2-Ethoxy-4-{6-[2-(7-methyl-benzo[b]thiophen-6-yl)-ethylamino]-pyrimidin-4-yl}-benzoic acid]",420,343
"Cc1c(CCNc2cc(-c3ccc(C(=O)O)c(OC4CCC4)c3)ncn2)ccc2ccsc12 [Example 471, 2-Cyclobutoxy-4-{6-[2-(7-methyl-benzo[b]thiophen-6-yl)-ethylamino]-pyrimidin-4-yl}-benzoic acid]",300,207
"CCOc1cc(-c2cc(NCCc3ccc4ccsc4c3C)ncn2)ccc1CC(=O)O [Example 472, (2-Ethoxy-4-{6-[2-(7-methyl-benzo[b]thiophen-6-yl)-ethylamino]-pyrimidin-4-yl}-phenyl)-acetic acid]",246,680
"CSc1cc(-c2cc(NCCc3ccc4ccsc4c3C)ncn2)ccc1C(=O)O [Example 473, 4-{6-[2-(7-Methyl-benzo[b]thiophen-6-yl)-ethylamino]-pyrimidin-4-yl}-2-methylsulfanyl-benzoic acid]",275,137
"COc1cc(-c2cc(NCCc3cc(F)c4sccc4c3)ncn2)ccc1CC(=O)O [Example 475, (4-{6-[2-(7-Fluoro-benzo[b]thiophen-5-yl)-ethylamino]-pyrimidin-4-yl}-2-methoxy-phenyl)-acetic acid]",62,663
"CCOc1cc(-c2cc(NCCc3cc(C)c4sccc4c3)ncn2)ccc1C(=O)O [Example 476, 2-Ethoxy-4-{6-[2-(7-methyl-benzo[b]thiophen-5-yl)-ethylamino]-pyrimidin-4-yl}-benzoic acid]",264,428
"CSc1cc(-c2cc(NCCc3cc(C)c4sccc4c3)ncn2)ccc1C(=O)O [Example 477, 4-{6-[2-(7-Methyl-benzo[b]thiophen-5-yl)-ethylamino]-pyrimidin-4-yl}-2-methylsulfanyl-benzoic acid]",210,316
"CCCc1cc(-c2cc(NCCc3cc(C)c4sccc4c3)ncn2)ccc1C(=O)O [Example 478, 4-{6-[2-(7-Methyl-benzo[b]thiophen-5-yl)-ethylamino]-pyrimidin-4-yl}-2-propyl-benzoic acid]",242,788
"CCCOc1cc(-c2cc(NCCc3ccc4sccc4c3)ncn2)ccc1CC(=O)O [Example 479, {4-[6-(2-Benzo[b]thiophen-5-yl-ethylamino)-pyrimidin-4-yl]-2-propoxy-phenyl}-acetic acid]",158,345
"CCCOc1cc(-c2cc(NCCc3cc4c(cc3OC)OCCO4)ncn2)ccc1CC(=O)O [Example 480, (4-{6-[2-(7-Methoxy-2,3-dihydro-benzo[1,4]dioxin-6-yl)-ethylamino]-pyrimidin-4-yl}-2-propoxy-phenyl)-acetic acid]",207,170
"CCCc1cc(-c2cc(NCCc3cc4ccsc4c(F)c3OC)ncn2)ccc1C(=O)O [Example 483, 4-{6-[2-(7-Fluoro-6-methoxy-benzo[b]thiophen-5-yl)-ethylamino]-pyrimidin-4-yl}-2-propyl-benzoic acid]",115,26
"CCOc1cc(-c2cc(NCCc3cc4ccsc4c(F)c3OC)ncn2)sc1C(=O)O [Example 484, 3-Ethoxy-5-{6-[2-(7-fluoro-6-methoxy-benzo[b]thiophen-5-yl)-ethylamino]-pyrimidin-4-yl}-thiophene-2-carboxylic acid]",3,3
"COc1cc(-c2cc(NCCc3cc4ccsc4c(F)c3OC)ncn2)ccc1CC(=O)O [Example 485, (4-{6-[2-(7-Fluoro-6-methoxy-benzo[b]thiophen-5-yl)-ethylamino]-pyrimidin-4-yl}-2-methoxy-phenyl)-acetic acid]",122,125
"CCCc1cc(-c2cc(NCCc3cc4ccsc4c(F)c3OC)ncn2)ccc1CC(=O)O [Example 486, (4-{6-[2-(7-Fluoro-6-methoxy-benzo[b]thiophen-5-yl)-ethylamino]-pyrimidin-4-yl}-2-propyl-phenyl)-acetic acid]",136,95
"CCOc1cc(-c2cc(NCCc3cc(C(F)(F)F)c4sccc4c3)ncn2)sc1C(=O)O [Example 488, 3-Ethoxy-5-{6-[2-(7-trifluoromethyl-benzo[b]thiophen-5-yl)-ethylamino]-pyrimidin-4-yl}-thiophene-2-carboxylic acid]",45,723
"CCOc1cc(-c2cc(NCCc3ccc4scc(Cl)c4c3)ncn2)ccc1C(=O)O [Example 490, 4-{6-[2-(3-Chloro-benzo[b]thiophen-5-yl)-ethylamino]-pyrimidin-4-yl}-2-ethoxy-benzoic acid]",144,90
"O=C(O)c1ccc(-c2cc(NCCc3cc4c(cc3OC(F)F)OCCO4)ncn2)cc1OC1CCC1 [Example 494, 2-Cyclobutoxy-4-{6-[2-(7-difluoromethoxy-2,3-dihydro-benzo[1,4]dioxin-6-yl)-ethylamino]-pyrimidin-4-yl}-benzoic acid]",209,340

# Further lines, results first:
IC50 (PTGER4 (EP4)) [nM],IC50 (PTGER2 (EP2)) [nM],SMILES
148,372,"CC(C)Oc1cc(-c2cc(NCCc3cc(F)c4sccc4c3)ncn2)ccc1C(=O)O [Example 491, 4-{6-[2-(7-Fluoro-benzo[b]thiophen-5-yl)-ethylamino]-pyrimidin-4-yl}-2-isopropoxy-benzoic acid]"
142,204,"CC(C)Oc1cc(-c2cc(NCCc3ccc4sccc4c3F)ncn2)ccc1C(=O)O [Example 492, 4-{6-[2-(4-Fluoro-benzo[b]thiophen-5-yl)-ethylamino]-pyrimidin-4-yl}-2-isopropoxy-benzoic acid]"
497,642,"COc1cc2c(cc1CCNc1cc(-c3ccc(C(=O)O)c(OC(C)C)c3)ncn1)OCCO2 [Example 493, 2-Isopropoxy-4-{6-[2-(7-methoxy-2,3-dihydro-benzo[1,4]dioxin-6-yl)-ethylamino]-pyrimidin-4-yl}-benzoic acid]"
193,77,"CSc1cc(-c2cc(NCCc3cc4c(cc3OC(F)F)OCCO4)ncn2)ccc1C(=O)O [Example 495, 4-{6-[2-(7-Difluoromethoxy-2,3-dihydro-benzo[1,4]dioxin-6-yl)-ethylamino]-pyrimidin-4-yl}-2-methylsulfanyl-benzoic acid]"
908,588,"O=C(O)c1ccc(-c2cc(NCCc3cc(F)c4sccc4c3)ncn2)cc1 [Example 496, 4-{6-[2-(7-Fluoro-benzo[b]thiophen-5-yl)-ethylamino]-pyrimidin-4-yl}-benzoic acid]"
443,449,"COc1cc(-c2cc(NCCc3cc(F)c4sccc4c3)ncn2)ccc1C(=O)O [Example 497, 4-{6-[2-(7-Fluoro-benzo[b]thiophen-5-yl)-ethylamino]-pyrimidin-4-yl}-2-methoxy-benzoic acid]"
107,163,"CCCc1cc(-c2cc(NCCc3ccc4scc(Cl)c4c3)ncn2)ccc1CC(=O)O [Example 498, (4-{6-[2-(3-Chloro-benzo[b]thiophen-5-yl)-ethylamino]-pyrimidin-4-yl}-2-propyl-phenyl)-acetic acid]"
169,180,"O=C(O)Cc1ccc(-c2cc(NCCc3ccc4scc(Cl)c4c3)ncn2)cc1OC(F)(F)F [Example 499, (4-{6-[2-(3-Chloro-benzo[b]thiophen-5-yl)-ethylamino]-pyrimidin-4-yl}-2-trifluoromethoxy-phenyl)-acetic acid]"
99,88,"COc1cc2ccccc2c(C)c1CCNc1cc(-c2ccc(CC(=O)O)c(OC(F)(F)F)c2)ncn1 [Example 500, (4-{6-[2-(3-Methoxy-1-methyl-naphthalen-2-yl)-ethylamino]-pyrimidin-4-yl}-2-trifluoromethoxy-phenyl)-acetic acid]"
808,196,"CCCc1cc(-c2cc(NCCc3cc(F)c4scc(Cl)c4c3)ncn2)ccc1CC(=O)O [Example 501, (4-{6-[2-(3-Chloro-7-fluoro-benzo[b]thiophen-5-yl)-ethylamino]-pyrimidin-4-yl}-2-propyl-phenyl)-acetic acid]"
903,103,"CCOc1cc(-c2cc(NCCc3cc(F)c4scc(Cl)c4c3)ncn2)ccc1CC(=O)O [Example 502, (4-{6-[2-(3-Chloro-7-fluoro-benzo[b]thiophen-5-yl)-ethylamino]-pyrimidin-4-yl}-2-ethoxy-phenyl)-acetic acid]"
157,102,"C#Cc1cc2c(cc1CCNc1cc(-c3ccc(CC(=O)O)c(OC)c3)ncn1)OCCO2 [Example 503, (4-{6-[2-(7-Ethynyl-2,3-dihydro-benzo[1,4]dioxin-6-yl)-ethylamino]-pyrimidin-4-yl}-2-methoxy-phenyl)-acetic acid]"
167,108,"CCCc1cc(-c2cc(NCCc3ccc4c(c3C)OCCO4)ncn2)ccc1CC(=O)O [Example 504, (4-{6-[2-(5-Methyl-2,3-dihydro-benzo[1,4]dioxin-6-yl)-ethylamino]-pyrimidin-4-yl}-2-propyl-phenyl)-acetic acid]"

# — patent US11839613B2, “Pyrimidine derivatives as PGE2 receptor modulators” (IDORSIA PHARMACEUTICALS LTD, priority 2017, dated 2023)
